Results on 18 compounds are retold here after patent publication US8017792B2, “1-thio-D-glucitol derivatives” (Taisho Pharmaceutical Co., Ltd., priority 2005, dated 2011).

SMILES strings stand for the structures. Structures can show the parent of a compound that is named as a salt.

One data set deals with T1, Human SGLT2 (Homo sapiens, UniProt P31639).
T1 construct: expressed in transfected cells; host or cells: CHO-K1
T1 sequence (P31639 1-672): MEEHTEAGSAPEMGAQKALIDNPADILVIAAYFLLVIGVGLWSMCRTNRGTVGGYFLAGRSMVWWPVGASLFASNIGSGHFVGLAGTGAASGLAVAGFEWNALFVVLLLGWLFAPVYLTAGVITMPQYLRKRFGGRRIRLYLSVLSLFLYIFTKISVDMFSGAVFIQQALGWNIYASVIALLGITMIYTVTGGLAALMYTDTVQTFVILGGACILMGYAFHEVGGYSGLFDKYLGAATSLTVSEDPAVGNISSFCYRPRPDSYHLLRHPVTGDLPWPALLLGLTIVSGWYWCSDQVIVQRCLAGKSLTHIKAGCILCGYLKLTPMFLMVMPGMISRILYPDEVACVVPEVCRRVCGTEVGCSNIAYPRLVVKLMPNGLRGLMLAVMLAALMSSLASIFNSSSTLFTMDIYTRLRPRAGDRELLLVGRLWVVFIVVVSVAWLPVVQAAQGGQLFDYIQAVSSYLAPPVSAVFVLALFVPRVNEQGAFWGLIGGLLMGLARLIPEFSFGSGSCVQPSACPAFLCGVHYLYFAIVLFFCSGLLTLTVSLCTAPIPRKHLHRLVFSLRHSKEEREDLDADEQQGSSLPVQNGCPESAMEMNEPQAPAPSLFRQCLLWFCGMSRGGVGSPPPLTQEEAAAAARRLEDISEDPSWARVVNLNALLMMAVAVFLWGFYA
Nature of the data set: Sodium-dependent sugar uptake inhibition test in CHO-K1 cells stably expressing human SGLT2 (Test Example 2). In kind it is cell-based. The following applies: for IC50: CHO-K1 cells, [14C]methyl-α-D-glucopyranoside 1 mM, 37° C., one hour; for SGLT1/SGLT2: ratio of IC50 human SGLT1 to IC50 human SGLT2. The protocol: (§1) Human SGLT1 sequence (NM_000343) was reverse-transcripted from human small intestinal mRNA, then amplified, and then introduced into pCMV-tag5A from Stratagene Corporation. Human SGLT2 sequence (NM_003041) was prepared from human nephric mRNA as with the above method, and then introduced into pcDNA3.1+hygro from Invitrogen Corporation. Each cloned sequence was confirmed to be identical with the reported sequence.
(§2) CHO-K1 cells were transfected with the human SGLT1 and human SGLT2 expression vectors using Lipofectamine 2000 (Invitrogen Corporation). SGLT expression cells were cultured in the presence of geneticin (SGLT1) or hygromycin B (SGLT2) of the concentration of 500 μg/mL to select resistant strains. Cells were obtained using sugar uptake specific activity as an index in the following system.
(§3) Cells stably expressing human SGLT1 and human SGLT2 were used in the sodium-dependent sugar uptake activity inhibition test. Cells were incubated in 1 mL of a pretreatment buffer solution (140 mM choline chloride, 2 mM KCl, 1 mM CaCl2, 1 mM MgCl2, 10 mM HEPES/5 mM Tris, pH 7.4) for 20 minutes. The pretreatment buffer solution was removed and 200 μL of an uptake buffer containing test compounds (methyl-α-D-glucopyranoside containing [^14C]methyl-α-D-glucopyranoside (0.1 mM for SGLT1 inhibition, 1 mM for SGLT2 inhibition), 140 mM NaCl, 2 mM KCl, 1 mM CaCl2, 1 mM MgCl2, 10 mM HEPES/5 mM Tris, pH 7.4) were added, and uptake reaction was performed at 37° C. for 30 minutes (SGLT1) or for one hour (SGLT2). After the reaction, cells were washed with 1 mL of a washing buffer (10 mM methyl-α-D-glucopyranoside, 140 mM choline chloride, 2 mM KCl, 1 mM CaCl2, 1 mM MgCl2, 10 mM HEPES/5 mM Tris, pH 7.4) twice and dissolved in 400 μL of 0.2 M NaOH solution. After Aquazole 2 (Perkin Elmer Corporation) was added and mixed well, radioactivity was measured with a liquid scintillation counter (Beckman Coulter Corporation). A buffer for uptake which contained no test compound was prepared as a control group. Another buffer solution for uptake containing choline chloride in place of NaCl was also prepared for basic uptake.

The target of the next data set is T2, Human SGLT1 (Homo sapiens, UniProt P13866).
T2 construct: expressed in transfected cells; host or cells: CHO-K1
T2 sequence (P13866 1-664): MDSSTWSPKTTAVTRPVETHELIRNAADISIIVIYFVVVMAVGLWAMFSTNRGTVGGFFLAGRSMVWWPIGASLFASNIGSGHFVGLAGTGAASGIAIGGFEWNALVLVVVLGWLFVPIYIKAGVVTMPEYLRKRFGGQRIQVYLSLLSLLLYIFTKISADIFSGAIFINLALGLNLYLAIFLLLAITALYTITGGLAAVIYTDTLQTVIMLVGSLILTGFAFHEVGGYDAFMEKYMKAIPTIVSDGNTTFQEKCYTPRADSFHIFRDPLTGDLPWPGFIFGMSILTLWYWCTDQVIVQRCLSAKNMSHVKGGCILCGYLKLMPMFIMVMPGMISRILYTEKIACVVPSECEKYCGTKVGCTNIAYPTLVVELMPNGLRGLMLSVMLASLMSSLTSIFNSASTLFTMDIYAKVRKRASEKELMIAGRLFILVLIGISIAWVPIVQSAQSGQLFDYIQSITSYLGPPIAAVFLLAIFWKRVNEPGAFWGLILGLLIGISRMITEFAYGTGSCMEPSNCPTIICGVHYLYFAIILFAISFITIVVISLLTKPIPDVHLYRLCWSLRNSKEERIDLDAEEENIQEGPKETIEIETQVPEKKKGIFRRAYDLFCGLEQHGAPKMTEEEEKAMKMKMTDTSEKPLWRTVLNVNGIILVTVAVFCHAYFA
Nature of the data set: Sodium-dependent sugar uptake inhibition test in CHO-K1 cells stably expressing human SGLT1 (Test Example 2). In kind it is cell-based. The note with it: [14C]methyl-α-D-glucopyranoside 0.1 mM, 37° C., 30 minutes. The procedure: as §1, §2, §3

Usually IC50 stands for the concentration at which inhibition is half-maximal. Higher therefore signals weaker potency. Usually melting point stands for the temperature of the solid-liquid transition. Turning to `OC[C@H]1S[C@@H](c2cccc(Cc3cc4ccccc4s3)c2)[C@H](O)[C@@H](O)[C@@H]1O` [Compound 129, (1S)-1,5-Anhydro-1-[3-[(1-benzothien-2-yl)methyl]-phenyl]-1-thio-D-glucitol], the melting point fell in the range of 159.5 to 160 °C. For the same compound, on Human SGLT2, the IC50 worked out at 3000 nM and the SGLT1/SGLT2 was found to be 4.3. In addition, the IC50 at Human SGLT1 turned out to be 12800 nM.

As for `CCOc1ccc(Cc2cc([C@@H]3S[C@H](CO)[C@@H](O)[C@H](O)[C@H]3O)ccc2Cl)cc1F` [Compound 84, (1S)-1,5-Anhydro-1-[4-chloro-3-(3-fluoro-4-ethoxybenzyl)phenyl]-1-thio-D-glucitol], the melting point was in the range of 73 to 81 °C. At Human SGLT2, the IC50 was 170 nM and the SGLT1/SGLT2 was 12.5. Also, on Human SGLT1, the IC50 was determined as 2100 nM.

For the compound `CCOc1ccc(Cc2cc([C@@H]3S[C@H](CO)[C@@H](O)[C@H](O)[C@H]3O)c(O)cc2O)cc1` [Compound 100, (1S)-1,5-Anhydro-1-[3-(4-ethoxybenzyl)-4,6-dihydroxyphenyl]-1-thio-D-glucitol], the melting point lay in the range of 186 to 190 °C. In addition, at Human SGLT2, the IC50 worked out at 1520 nM and the SGLT1/SGLT2 is given as 2.9. Besides, the IC50 against Human SGLT1 was 4400 nM.

The compound `CCc1ccc(Cc2cccc([C@@H]3S[C@H](COCc4ccccc4)[C@@H](OCc4ccccc4)[C@H](OCc4ccccc4)[C@H]3OCc3ccccc3)c2)cc1` [Compound 1, (1S)-1,5-anhydro-2,3,4,6-tetra-O-benzyl-1-[3-(4-ethylbenzyl)phenyl]-1-thio-D-glucitol] registered a melting point of 100 to 102.5 °C.

Compound `CCOc1cc(F)c(Cc2cc([C@@H]3S[C@H](CO)[C@@H](O)[C@H](O)[C@H]3O)ccc2Cl)cc1F` [Compound 83, (1S)-1,5-Anhydro-1-[4-chloro-3-(2,5-difluoro-4-ethoxybenzyl)phenyl]-1-thio-D-glucitol] gave a melting point of 72 to 76 °C. Further, on Human SGLT2, the IC50 was 30 nM and the SGLT1/SGLT2 came out at 48.7. The same compound showed an IC50 at Human SGLT1 of 1500 nM.

As for `CCOc1ccc(Cc2cc([C@@H]3S[C@H](COCc4ccccc4)[C@@H](OCc4ccccc4)[C@H](OCc4ccccc4)[C@H]3OCc3ccccc3)ccc2Cl)cc1` [Compound 3], the melting point was 126 to 128 °C.

Compound `CCOc1ccc(Cc2cc([C@@H]3S[C@H](CO)[C@@H](O)[C@H](O)[C@H]3O)ccc2Cl)cc1Cl` [Compound 85, (1S)-1,5-Anhydro-1-[4-chloro-3-(3-chloro-4-ethoxybenzyl)phenyl]-1-thio-D-glucitol] returned a melting point of 79 to 82 °C. In addition, on Human SGLT2, the IC50 worked out at 1270 nM and the SGLT1/SGLT2 was 4.8. The same compound came in with an IC50 on Human SGLT1 of 6100 nM.

With `Clc1ccc([C@@H]2S[C@H](COCc3ccccc3)[C@@H](OCc3ccccc3)[C@H](OCc3ccccc3)[C@H]2OCc2ccccc2)cc1Cc1cc2ccccc2s1` [Compound 57], the melting point lay within 140 to 143 °C.

Turning to `CCOc1ccc(Cc2cc([C@@H]3S[C@H](CO)[C@@H](O)[C@H](O)[C@H]3O)ccc2O)cc1` [Compound 82, (1S)-1,5-Anhydro-1-[3-(4-ethoxybenzyl)-4-hydroxyphenyl]-1-thio-D-glucitol], at Human SGLT2, the IC50 came out at 3780 nM and the SGLT1/SGLT2 is listed as 4.0. For the same compound, on Human SGLT1, inhibition was half-maximal at 15000 nM (IC50).

On to `CCOc1ccc(Cc2cc([C@@H]3S[C@H](CO)[C@@H](O)[C@H](O)[C@H]3O)c(OC)cc2C)cc1` [Compound 89, (1S)-1,5-anhydro-1-[3-(4-ethoxybenzyl)-6-methoxy-4-methylphenyl]-1-thio-D-glucitol], for which, at Human SGLT2, half-maximal inhibition (IC50) required 65 nM and the SGLT1/SGLT2 is reported as 97.5. This compound came in with an IC50 against Human SGLT1 of 6300 nM.

For `CCc1ccc(Cc2cccc([C@@H]3S[C@H](CO)[C@@H](O)[C@H](O)[C@H]3O)c2)cc1` [Compound 74, (1S)-1,5-anhydro-1-[3-(4-ethylbenzyl)phenyl]-1-thio-D-glucitol], at Human SGLT2, the IC50 was 1190 nM and the SGLT1/SGLT2 was determined as 12.8. For the same compound, the IC50 against Human SGLT1 stood at 15300 nM.

Consider `CCOc1ccc(Cc2cc([C@@H]3S[C@H](CO)[C@@H](O)[C@H](O)[C@H]3O)c(OC)cc2Cl)cc1` (as salt: Na) [Compound 99, (1S)-1,5-anhydro-1-[4-chloro-5-(4-ethoxybenzyl)-2-methoxyphenyl]-1-thio-D-glucitol], for which the melting point is 177 to 179 °C.

Consider `CSc1ccc(Cc2cc([C@@H]3S[C@H](CO)[C@@H](O)[C@H](O)[C@H]3O)ccc2Cl)cc1` [Compound 93, (1S)-1,5-Anhydro-1-[4-chloro-3-(4-methylthiobenzyl)phenyl]-1-thio-D-glucitol], for which the IC50 against Human SGLT2 amounted to 21 nM; against Human SGLT1, 400 nM. Further, on Human SGLT2, the SGLT1/SGLT2 was determined as 21.0.

On to `COc1cc(C)c(Cc2ccc(C(C)C)cc2)cc1[C@@H]1S[C@H](CO)[C@@H](O)[C@H](O)[C@H]1O` [Compound 105, (1S)-1,5-Anhydro-1-[3-(4-isopropylbenzyl)-6-methoxy-4-methylphenyl]-1-thio-D-glucitol], for which the IC50 against Human SGLT2 turned out to be 93 nM; against Human SGLT1, 17000 nM. Besides, the SGLT1/SGLT2 on Human SGLT2 was 182.5.

Take `COc1ccc([C@@H]2S[C@H](COCc3ccccc3)[C@@H](OCc3ccccc3)[C@H](OCc3ccccc3)[C@H]2OCc2ccccc2)cc1Cc1cc2ccccc2s1` [Compound 56]: the melting point was in the range of 133 to 135 °C.

As for `CCOc1ccc(Cc2cc([C@@H]3S[C@H](CO)[C@@H](O)[C@H](O)[C@H]3O)c(O)cc2C)cc1` [Compound 98, (1S)-1,5-Anhydro-1-[3-(4-ethoxybenzyl)-6-hydroxy-4-methylphenyl]-1-thio-D-glucitol], on Human SGLT2, it took 15 nM to reach half-maximal inhibition (IC50) and the SGLT1/SGLT2 is recorded as 6.5. At Human SGLT1, this compound showed an IC50 of 100 nM.

As to `CC(C)c1ccc(Cc2cc([C@@H]3S[C@H](CO)[C@@H](O)[C@H](O)[C@H]3O)ccc2Cl)cc1` [Compound 96, (1S)-1,5-Anhydro-1-[4-chloro-3-(4-isopropylbenzyl)phenyl]-1-thio-D-glucitol], at Human SGLT2, the IC50 was found to be 62 nM and the SGLT1/SGLT2 turned out to be 116.3. The same compound showed an IC50 against Human SGLT1 of 7300 nM.

On to `CCc1ccc(Cc2cc([C@@H]3S[C@H](CO)[C@@H](O)[C@H](O)[C@H]3O)c(OC)cc2Cl)cc1` [Compound 102, (1S)-1,5-Anhydro-1-[4-chloro-3-(4-ethylbenzyl)-6-methoxyphenyl]-1-thio-D-glucitol], for which, on Human SGLT2, half-maximal inhibition (IC50) was put at 40 nM and the SGLT1/SGLT2 is on record as 86.6. Inhibition on Human SGLT1 was half-maximal at 3500 nM (IC50).
